Measured values taken from patent publication US20260365688A1, “STRAINED BICYCLONONENES” (TAGWORKS PHARMACEUTICALS B.V., priority 2022, published 2026).

Experiments:
Type in all cases: physicochemical
[1] = Second-order rate constant of IEDDA reaction of TCO with tetrazine 2.1 in MeCN by UV-Vis; conditions: activator 2.1; in MeCN at 20 °C; second-order conditions
Experimental: (§1) The second-order rate constant of the IEDDA reaction of 3,6-dimethyl-1,2,4,5-tetrazine (2.1) or 3,6-di(pyridin-2-yl)-1,2,4,5-tetrazine (2.2) and a compound of the disclosure in MeCN at 20 °C was determined by UV-Vis spectrometry under second-order reaction conditions (n=1). A cuvette was filled with a solution of 3,6-dimethyl-1,2,4,5-tetrazine or 3,6-di(pyridin-2-yl)-1,2,4,5-tetrazine (3 mL 0.083 mM in MeCN), and equilibrated at 20 °C. Next, a solution of the compound of the disclosure (10.0 μL 25 mM in acetonitrile, 2.50×10^−7 mol) was added, and the solution was quickly homogenized and inserted in the UV spectrometer. The absorption at λ=540 nm (specific for the tetrazine moiety) was measured every second in a time course experiment. From the decay of this absorption, the conversion was calculated. The second-order rate constant k2 was determined from the slope of the curve of a plot of 1/c −1/c0 versus time.

[2] = Second-order rate constant of IEDDA reaction of TCO with tetrazine 2.2 in MeCN by UV-Vis; conditions: activator 2.2; in MeCN at 20 °C; second-order conditions
Experimental: as §1

[3] = Releasing activity of s-TCO derivatives on reaction with 3,6-dimethyl-1,2,4,5-tetrazine (HPLC-MS PDA); conditions: acetonitrile/PBS; for formation of the (pyridazine) elimination product: after 30 min
Experimental: To a stock solution of 1.7 (10 uL 17.8 mM in DMSO, 1.78×10^−7 mol) was added acetonitrile (0.2 mL), PBS (0.8 mL), and a stock solution of 3,6-dimethyl-1,2,4,5-tetrazine (7.1 uL 25 mM in DMSO, 1.78×10^−7 mol). […] ESI-MS: m/z Calc. for C18H21N3O4 343.15 Da; Obs. [M+H]^+ 344.25 Da, max=243 nm.
To a solution of 1.21 (3.75×10^−7 mol) in acetonitrile (0.2 mL) was added PBS (0.8 mL), and a stock solution of 3,6-dimethyl-1,2,4,5-tetrazine (20 uL 25 mM in DMSO, 5.0×10^−7 mol). […] ESI-MS: m/z Calc. for C18H21N3O4 343.15 Da; Obs. [M+H]^+ 344.25 Da, λmax=250 nm.
To a solution of 1.22 (3.75×10-8 mol) in acetonitrile (0.02 mL) was added PBS (0.08 mL), and a stock solution of 3,6-dimethyl-1,2,4,5-tetrazine (2 uL 25 mM in DMSO, 5.0×10-8 mol).

| Structure (SMILES) | Rate constants k2 [1] [M⁻¹ s⁻¹] | Rate constants k2 [2] [M⁻¹ s⁻¹] | disappearance of the pink color (tetrazine consumption) [3] | formation of the (pyridazine) elimination product [3] |
| --- | --- | --- | --- | --- |
| CN(Cc1ccccc1)C(=O)O[C@@H]1/C=C/CCC[C@@H]2[C@H](C(=O)ON3C(=O)CCC3=O)[C@@H]21 [Compound 1.21, 2,5-Dioxopyrrolidin-1-yl (1R,2R,8S,9S,E)-2-((benzyl(methyl)carbamoyl)oxy)bicyclo[6.1.0]non-3-ene-9-carboxylate] | 8.0 | 605 | within minutes | quantitative formation |
| COC(=O)[C@@H]1[C@@H]2C/C=C/[C@H](O)CC[C@@H]21 [Compound 1.6b, Methyl (1R,5R,8S,9S,E)-5-hydroxybicyclo[6.1.0]non-3-ene-9-carboxylate] | 3.3 | – | – | – |
| O=C1O[C@@H]2C=CCCC[C@@H]3[C@H]1[C@@H]32 (stereo in doubt) [Compound 1.17b, (1R,2S,8R,11S,E)-9-Oxatricyclo[6.3.0.0^2,11]undec-6-en-10-one] | 8.7 | – | – | – |
| CN(Cc1ccccc1)C(=O)O[C@H]1/C=C/C[C@@H]2[C@H](CC1)[C@@H]2C(=O)ON1C(=O)CCC1=O [Compound 1.7, 2,5-Dioxopyrrolidin-1-yl (1R,5R,8S,9S,E)-5-((benzyl(methyl)carbamoyl)oxy)bicyclo[6.1.0]non-3-ene-9-carboxylate] | 2.9 | 375 | within minutes | quantitative formation |
| COC(=O)[C@H]1[C@H]2CCC/C=C/[C@@H](O)[C@H]21 [Compound 1.16a, Methyl (1R,2R,8S,9S,E)-2-hydroxybicyclo[6.1.0]non-3-ene-9-carboxylate] | 7.0 | – | – | – |
| O=C1O[C@@H]2C=CCCC[C@@H]3[C@H]1[C@@H]32 (stereo in doubt) [Compound 1.17a, (1R,2S,8R,11S,E)-9-Oxatricyclo[6.3.0.0^2,11]undec-6-en-10-one] | 11.5 | 1100 | – | – |
| COC(=O)[C@H]1[C@H]2CCC/C=C/[C@@H](O)[C@H]21 [Compound 1.16b, Methyl (1R,2R,8S,9S,E)-2-hydroxybicyclo[6.1.0]non-3-ene-9-carboxylate] | 0.3 | – | – | – |
